Assay results: patent publication US11000033B2, “Ketone or oxime compound, and herbicide” (NISSAN CHEMICAL CORPORATION, priority 2014, dated 2021)

Tests used:
Type in all cases: in vivo
soybean = assay: Test Example 5: effect on crop by foliage application, plastic box (symbol d); conditions: 320 g/ha, 3 weeks after application
In short: (§1)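 Seeds were sown in spots in sterilized diluvial soil held in a plastic box 21 cm × 13 cm × 7 cm deep, covered with about 1.5 cm of soil, and grown in a greenhouse at 25° C. to 30° C.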

Galium spurium = assay: Test Example 4: herbicidal effect by soil treatment (symbol Q)
In short: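 Seeds were sown in sterilized diluvial soil, covered with about 1.5 cm of soil, and the soil surface was sprayed with a water-diluted emulsion of the compound at a predetermined rate. Plants grew in a greenhouse at 25° C. to 30° C.; effects were scored visually 3 weeks after application.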

[1] = test system: directly sowed rice plant; assay: Test Example 3: effect on crop by foliage application, Wagner pot (symbol b); conditions: application herbicide amount 320 g/ha
In short: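 Steps: fill a 1/10000-are Wagner pot with alluvial soil; add water and mix to submerge at 0.1–0.5 cm depth; sow rice plus Echinochloa crus-galli var. crus-galli, Leptochloa chinensis and Cyperus difformis; grow in a 25–30 °C greenhouse.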

Avena fatua = assay: Test Example 5: herbicidal effect by foliage application, plastic box (symbol I); conditions: 320 g/ha, 3 weeks after application
In short: (§2)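 Sowing in sterilized diluvial soil, 14 days' greenhouse growth at 25° C. to 30° C., then uniform small-sprayer foliar application of aqueous emulsion dilution; plants scored three weeks afterwards.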

[2] = test system: Echinochloa crus-galli var. crus-galli; assay: Test Example 3: herbicidal effect by foliage application, Wagner pot (symbol H); conditions: application herbicide amount 320 g/ha
In short: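 Weeds and rice were sown in alluvial soil under 0.1–0.5 cm of standing water and grown for 14 days in a 25–30 °C greenhouse. An emulsion of the compound, diluted in water to a set dose, was sprayed evenly onto the foliage. Effect was scored against fixed criteria 3 weeks after treatment.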

Veronica persica = assay: Test Example 5: herbicidal effect by foliage application, plastic box (symbol R); conditions: 320 g/ha, 3 weeks after application
In short: as §2

rapeseed = assay: Test Example 5: effect on crop by foliage application, plastic box (symbol g); conditions: 320 g/ha, 3 weeks after application
In short: as §1

Monochoria vaginalis = assay: Test Example 1: herbicidal activity, application before weed generation in submerged conditions (symbol C); conditions: application herbicide amount 320 g/ha
In short: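 Ratings (5: ≥90%, near complete withering; 4: 70–<90%; 3: 40–<70%; 2: 20–<40%; 1: 5–<20%; 0: ≤5%) were assigned 3 weeks after the diluted emulsion was applied to the water surface of freshly sown, submerged pots.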

beet = assay: Test Example 4: effect on crop by soil treatment (symbol f); conditions: for f: beet, effect grade on crop: 320 g/ha
In short: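 Seeds were sown in spots on sterilized diluvial soil in a plastic box and covered with about 1.5 cm of soil. Plants were then grown in a greenhouse at 25° C. to 30° C.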

Scirpus juncoides = assay: Test Example 2: herbicidal activity, application during weed generation in submerged conditions (symbol B); conditions: Table 23; application herbicide amount 320 g/ha; grade 0-5 by criteria of Test Example 1
In short: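 Alluvial soil in pots was flooded to a 4 cm water depth and sown with a mix of the three weed species, then grown in a greenhouse at 25° C. to 30° C. At the one- to two-leaf stage, an emulsifiable formulation diluted in water to a set dose was applied to the water surface. Effects were scored visually 3 weeks later.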

[3] = application herbicide amount 320 g/ha

Row | SMILES | d: soybean, effect on crop grade (soybean) | Q: Galium spurium, herbicidal effect grade (Galium spurium; 320 g/ha) | effect on crop b (directly sowed rice plant), grade 0-5 [1] | I: Avena fatua, herbicidal effect grade (Avena fatua) | herbicidal effect on H (Echinochloa crus-galli var. crus-galli), grade 0-5 [2] | R: Veronica persica, herbicidal effect grade (Veronica persica) | g: rapeseed, effect on crop grade (rapeseed) | Herbicidal effect grade, C: Monochoria vaginalis (Monochoria vaginalis) | f: beet, effect grade on crop (beet) | Herbicidal effect grade, B: Scirpus juncoides (Scirpus juncoides) | Q: Galium spurium, herbicidal effect grade (Galium spurium; [3]) | f: beet, effect on crop grade (beet; [3]) | Q (Galium spurium) herbicidal effect grade (Galium spurium; [3]) | f (beet) effect on crop grade (beet; [3]) | d: soybean, effect on crop (criteria 0-5) (soybean) | I: Avena fatua, herbicidal effect (criteria 0-5) (Avena fatua) | R: Veronica persica, herbicidal effect (criteria 0-5) (Veronica persica) | g: rapeseed, effect on crop (criteria 0-5) (rapeseed)
1 | CON=C(C)CC1CC(OC(=O)c2ccc(S(C)(=O)=O)c(C(=O)OC)c2Cl)=C(c2c(C)cc(C)cc2C)C1=O (stereo not shown) [1-162] | 2 (Herbicidal ratio of 20% or higher and lower than 40%) | 0 (Herbicidal ratio of 5% or lower (almost no effect)) | 5 (Herbicidal ratio of 90% or more (almost completely withered)) | 5 (Herbicidal ratio of 90% or more (almost completely withered)) | 5 (Herbicidal ratio of 90% or more (almost completely withered)) | 3 (Herbicidal ratio of 40% or higher and lower than 70%) | 4 (Herbicidal ratio of 70% or higher and lower than 90%) | 3 (Herbicidal ratio of 40% or higher and lower than 70%) | 0 (Herbicidal ratio of 5% or lower (almost no effect)) | 1 (Herbicidal ratio of 5% or higher and lower than 20%) |  |  |  |  |  |  |  | 
2 | Cc1cc(C)c(C2=C(O)CC(CC(=O)C3CCCC3)C2=O)c(C)c1 (stereo not shown) [2-028] | 0 (Herbicidal ratio of 5% or lower (almost no effect)) |  | 5 (Herbicidal ratio of 90% or more (almost completely withered)) | 0 (Herbicidal ratio of 5% or lower (almost no effect)) | 5 (Herbicidal ratio of 90% or more (almost completely withered)) | 0 (Herbicidal ratio of 5% or lower (almost no effect)) | 3 (Herbicidal ratio of 40% or higher and lower than 70%) | 0 (Herbicidal ratio of 5% or lower (almost no effect)) |  | 0 (Herbicidal ratio of 5% or lower (almost no effect)) | 0 (Herbicidal ratio of 5% or lower (almost no effect)) | 0 (Herbicidal ratio of 5% or lower (almost no effect)) |  |  |  |  |  | 
3 | CON=C(C)CC1CC(OCC(=O)OC)=C(c2c(C)cc(C)cc2C)C1=O (stereo not shown) [1-012] | 0 (Herbicidal ratio of 5% or lower (almost no effect)) |  | 0 (Herbicidal ratio of 5% or lower (almost no effect)) | 0 (Herbicidal ratio of 5% or lower (almost no effect)) | 0 (Herbicidal ratio of 5% or lower (almost no effect)) | 0 (Herbicidal ratio of 5% or lower (almost no effect)) | 0 (Herbicidal ratio of 5% or lower (almost no effect)) | 0 (Herbicidal ratio of 5% or lower (almost no effect)) |  | 0 (Herbicidal ratio of 5% or lower (almost no effect)) |  |  | 0 (Herbicidal ratio of 5% or lower (almost no effect)) | 0 (Herbicidal ratio of 5% or lower (almost no effect)) |  |  |  | 
4 | CON=C(C)CC1CC(O)=C(c2c(C)cc(C)cc2OC)C1=O (stereo not shown) [6-037, 3-hydroxy-2-(2-methoxy-4,6-dimethylphenyl)-5-{2-(methoxyimino)propyl}cyclopent-2-enone] | 4 (Herbicidal ratio of 70% or higher and lower than 90%) |  | 5 (Herbicidal ratio of 90% or more (almost completely withered)) | 5 (Herbicidal ratio of 90% or more (almost completely withered)) | 5 (Herbicidal ratio of 90% or more (almost completely withered)) | 3 (Herbicidal ratio of 40% or higher and lower than 70%) | 5 (Herbicidal ratio of 90% or more (almost completely withered)) | 4 (Herbicidal ratio of 70% or higher and lower than 90%) |  | 4 (Herbicidal ratio of 70% or higher and lower than 90%) | 0 (Herbicidal ratio of 5% or lower (almost no effect)) | 0 (Herbicidal ratio of 5% or lower (almost no effect)) |  |  |  |  |  | 
5 | CON=C(C)CC1CC(OS(=O)(=O)C2CC2)=C(c2c(C)cc(C)cc2C)C1=O (stereo not shown) [1-143] |  | 0 (Herbicidal ratio of 5% or lower (almost no effect)) | 5 (Herbicidal ratio of 90% or more (almost completely withered)) |  | 4 (Herbicidal ratio of 70% or higher and lower than 90%) |  |  | 1 (Herbicidal ratio of 5% or higher and lower than 20%) | 0 (Herbicidal ratio of 5% or lower (almost no effect)) | 4 (Herbicidal ratio of 70% or higher and lower than 90%) |  |  |  |  | 1 (Herbicidal ratio of 5% or higher and lower than 20%) | 5 (Herbicidal ratio of 90% or more (almost completely withered)) | 0 (Herbicidal ratio of 5% or lower (almost no effect)) | 4 (Herbicidal ratio of 70% or higher and lower than 90%)
6 | CON=C(C)CC1CC(OC(=O)N2CCN(C)CC2)=C(c2c(C)cc(C)cc2C)C1=O (stereo not shown) [1-152] |  | 0 (Herbicidal ratio of 5% or lower (almost no effect)) | 5 (Herbicidal ratio of 90% or more (almost completely withered)) |  | 5 (Herbicidal ratio of 90% or more (almost completely withered)) |  |  | 0 (Herbicidal ratio of 5% or lower (almost no effect)) | 0 (Herbicidal ratio of 5% or lower (almost no effect)) | 0 (Herbicidal ratio of 5% or lower (almost no effect)) |  |  |  |  | 1 (Herbicidal ratio of 5% or higher and lower than 20%) | 4 (Herbicidal ratio of 70% or higher and lower than 90%) | 0 (Herbicidal ratio of 5% or lower (almost no effect)) | 4 (Herbicidal ratio of 70% or higher and lower than 90%)
7 | CON=C(C)CC1CC(OS(=O)(=O)CCCCl)=C(c2c(C)cc(C)cc2C)C1=O (stereo not shown) [1-142] |  | 0 (Herbicidal ratio of 5% or lower (almost no effect)) | 5 (Herbicidal ratio of 90% or more (almost completely withered)) |  | 5 (Herbicidal ratio of 90% or more (almost completely withered)) |  |  | 2 (Herbicidal ratio of 20% or higher and lower than 40%) | 0 (Herbicidal ratio of 5% or lower (almost no effect)) | 4 (Herbicidal ratio of 70% or higher and lower than 90%) |  |  |  |  | 3 (Herbicidal ratio of 40% or higher and lower than 70%) | 5 (Herbicidal ratio of 90% or more (almost completely withered)) | 3 (Herbicidal ratio of 40% or higher and lower than 70%) | 4 (Herbicidal ratio of 70% or higher and lower than 90%)
